# Measurements: ChEMBL document CHEMBL1201862, “PubChem BioAssay data set” (2004)
# Calls of active or inactive are those of the source. For most assays here, no stated cut-off is given here; in the data, actives have a measured EC50 and inactives only a lower limit.
# What was measured:
# [1] = SAR analysis of small molecule activators of Apaf-1 using a LZ-Caspase-9/Caspase-3 Fluorescent Selectivity assay - Set 2.; type: functional; conditions: read-out: EC50_Mean
# [2] = target: T1, Apoptotic protease-activating factor 1 (Homo sapiens, UniProt O14727); assay: SAR analysis of small molecule Activators of Apaf-1 in a Fluorescent assay - set 2.; type: functional; conditions: read-out: EC50_Mean
# T1 sequence (O14727 whole entry): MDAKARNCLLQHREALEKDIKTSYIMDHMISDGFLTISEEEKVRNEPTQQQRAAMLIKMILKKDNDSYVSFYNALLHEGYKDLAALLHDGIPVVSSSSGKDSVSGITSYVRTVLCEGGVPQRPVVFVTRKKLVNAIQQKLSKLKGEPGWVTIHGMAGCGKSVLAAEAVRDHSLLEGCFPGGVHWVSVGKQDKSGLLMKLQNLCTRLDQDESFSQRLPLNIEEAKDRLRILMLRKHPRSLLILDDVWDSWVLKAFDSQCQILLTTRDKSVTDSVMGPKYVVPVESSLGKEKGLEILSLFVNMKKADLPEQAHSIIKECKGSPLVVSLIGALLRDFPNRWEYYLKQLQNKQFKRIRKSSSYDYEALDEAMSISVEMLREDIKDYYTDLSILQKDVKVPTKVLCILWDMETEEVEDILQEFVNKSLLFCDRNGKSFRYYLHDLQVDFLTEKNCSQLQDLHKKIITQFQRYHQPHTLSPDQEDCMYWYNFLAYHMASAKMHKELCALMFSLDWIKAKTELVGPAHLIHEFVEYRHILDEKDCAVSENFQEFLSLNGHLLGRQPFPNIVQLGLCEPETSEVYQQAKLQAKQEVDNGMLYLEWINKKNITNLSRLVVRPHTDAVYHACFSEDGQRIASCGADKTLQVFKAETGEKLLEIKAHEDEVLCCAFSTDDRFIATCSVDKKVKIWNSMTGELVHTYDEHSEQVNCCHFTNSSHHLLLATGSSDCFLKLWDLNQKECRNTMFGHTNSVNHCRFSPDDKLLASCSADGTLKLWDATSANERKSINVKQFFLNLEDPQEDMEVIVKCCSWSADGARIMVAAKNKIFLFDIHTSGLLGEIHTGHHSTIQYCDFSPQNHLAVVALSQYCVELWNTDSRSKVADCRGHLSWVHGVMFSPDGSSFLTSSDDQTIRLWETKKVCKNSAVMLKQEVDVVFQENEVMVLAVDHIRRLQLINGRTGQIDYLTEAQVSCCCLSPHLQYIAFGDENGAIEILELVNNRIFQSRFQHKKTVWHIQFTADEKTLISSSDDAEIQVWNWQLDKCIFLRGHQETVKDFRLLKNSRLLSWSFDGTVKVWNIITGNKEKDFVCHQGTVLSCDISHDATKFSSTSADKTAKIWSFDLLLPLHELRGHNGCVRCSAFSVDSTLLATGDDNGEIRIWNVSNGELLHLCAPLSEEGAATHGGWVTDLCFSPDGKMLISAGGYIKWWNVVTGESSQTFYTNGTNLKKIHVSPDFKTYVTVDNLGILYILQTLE
# [3] = test system: BJ; assay: cytotoxicity toward BJ-TERT fibroblasts, dose response, cell-based, RAS-independent, luminescence (AID 1933); type: functional; conditions: Homo sapiens
# [4] = test system: BJ; assay: cytotoxicity toward Ras-transformed BJeLR fibroblasts, dose response, cell-based, alamar blue fluorescence, cherrypicked samples (AID 2631); type: functional; conditions: Homo sapiens;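 further: confirmatory dose-response assay in RAS-dependent BJ fibroblasts engineered with TERT, LT and ST, with cytotoxicity read by fluorescence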
# [5] = test system: Streptococcus sp. 'group A'; assay: growth inhibition of control SK(-) GAS strain, dose response, counter-screen for streptokinase expression inhibitor project, luminescence, kanamycin, BacTiterGlo, confirmation (AID 1900); type: functional, organism-based
# [6] = test system: BJ; assay: cytotoxicity toward BJ-TERT-LT-ST fibroblasts, dose response, cell-based, RAS-independent, luminescence (AID 1935); type: functional; conditions: Homo sapiens;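 further: BJ fibroblasts immortalized with TERT plus LT and ST oncogenes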
# [7] = target: T2, Streptokinase A (Streptococcus pyogenes serotype M1, UniProt P10520); assay: S. pyogenes streptokinase expression inhibitors, potency, dose response, plasminogen activation absorbance, OD405 (AID 1914); type: functional, Streptococcus pyogenes M1 GAS;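 further: secreted streptokinase activity via plasminogen activation per viability signal from cell pellet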
# T2 sequence (P10520 whole entry): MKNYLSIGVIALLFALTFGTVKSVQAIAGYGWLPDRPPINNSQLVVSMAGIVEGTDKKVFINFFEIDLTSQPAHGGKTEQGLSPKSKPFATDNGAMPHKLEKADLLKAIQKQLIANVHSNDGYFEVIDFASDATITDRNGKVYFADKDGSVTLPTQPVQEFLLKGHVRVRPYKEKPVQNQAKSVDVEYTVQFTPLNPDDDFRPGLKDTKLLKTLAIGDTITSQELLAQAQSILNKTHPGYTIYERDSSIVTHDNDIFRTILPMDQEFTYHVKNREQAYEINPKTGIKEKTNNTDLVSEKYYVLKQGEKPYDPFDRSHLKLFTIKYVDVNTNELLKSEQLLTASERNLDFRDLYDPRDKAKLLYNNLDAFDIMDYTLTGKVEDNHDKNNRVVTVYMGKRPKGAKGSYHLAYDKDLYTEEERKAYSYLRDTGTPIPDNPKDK
# [8] = target: T3, Protein RecA (Mycobacterium tuberculosis, UniProt P9WHJ3); assay: Fluorescence Cell-Free Homogeneous Dose Retest to Identify Inhibitors of RecA-Intein Splicing Activity. [Related pubchem assays (depositor defined):AID2097, AID2223, AID489010, AID492950]; type: functional
# T3 sequence (P9WHJ3 whole entry): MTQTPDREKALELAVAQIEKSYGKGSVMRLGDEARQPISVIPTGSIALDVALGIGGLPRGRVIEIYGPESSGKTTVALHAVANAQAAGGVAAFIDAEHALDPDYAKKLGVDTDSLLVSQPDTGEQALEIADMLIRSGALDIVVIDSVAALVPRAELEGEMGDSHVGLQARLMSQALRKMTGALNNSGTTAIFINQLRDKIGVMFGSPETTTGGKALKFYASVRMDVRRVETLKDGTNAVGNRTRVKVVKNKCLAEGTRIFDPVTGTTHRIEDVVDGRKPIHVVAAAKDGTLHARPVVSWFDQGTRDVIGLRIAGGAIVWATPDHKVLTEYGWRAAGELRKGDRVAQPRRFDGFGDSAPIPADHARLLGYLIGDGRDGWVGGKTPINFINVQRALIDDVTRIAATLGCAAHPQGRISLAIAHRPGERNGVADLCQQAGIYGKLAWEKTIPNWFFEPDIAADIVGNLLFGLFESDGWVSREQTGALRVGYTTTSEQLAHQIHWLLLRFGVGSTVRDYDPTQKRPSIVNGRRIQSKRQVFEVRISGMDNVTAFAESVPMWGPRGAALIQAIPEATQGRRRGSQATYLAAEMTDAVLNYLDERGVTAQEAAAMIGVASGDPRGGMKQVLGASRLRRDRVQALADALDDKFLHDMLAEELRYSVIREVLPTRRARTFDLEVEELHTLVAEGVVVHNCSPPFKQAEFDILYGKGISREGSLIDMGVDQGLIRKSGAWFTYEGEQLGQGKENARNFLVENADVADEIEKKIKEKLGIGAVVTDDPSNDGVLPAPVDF
# [9] = test system: Streptococcus; assay: Group A Streptococcus viability loss, dose response, counter-screen for streptokinase expression inhibitor project, luminescence, BacTiterGlo (AID 1915); type: functional, organism-based;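 further: potency for reduction of bacterial viability or growth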
# [10] = cytotoxicity in HEK-293T cells, dose response, cytotoxicity control for BCR NF-kB inhibitor project, luminescence, B-cell screen hits (AID 489021); type: functional, cell-based;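 further: HEK-293T cells carrying an NF-kB luciferase reporter; cells exposed to compound for about 14 hours before viability readout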
# [11] = test system: INS1; assay: beta cell apoptosis inhibitors, cytokine rescue, dose response, luminescence, retest (AID 449756); type: functional, cell-based; conditions: Rattus norvegicus;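 further: cell death triggered by IL-1 beta plus TNF-alpha plus IFN-gamma mixture; protective hits raise ATP signal compared with cytokine alone wells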
# [12] = cytotoxicity toward DRD oncogenic fibroblasts, dose response, cell-based, non-viral oncogenic, luminescence (AID 1934); type: functional; conditions: Homo sapiens
# [13] = test system: BJ; assay: cells; type: functional, cell-based; conditions: Homo sapiens
# [14] = target: T4, Replicative DNA helicase DnaB (Mycobacterium tuberculosis, UniProt P9WMR3); assay: DnaB intein splicing inhibitors, dose response, biochemical, cell-free fluorescence (AID 449749); type: functional
# T4 sequence (P9WMR3 whole entry): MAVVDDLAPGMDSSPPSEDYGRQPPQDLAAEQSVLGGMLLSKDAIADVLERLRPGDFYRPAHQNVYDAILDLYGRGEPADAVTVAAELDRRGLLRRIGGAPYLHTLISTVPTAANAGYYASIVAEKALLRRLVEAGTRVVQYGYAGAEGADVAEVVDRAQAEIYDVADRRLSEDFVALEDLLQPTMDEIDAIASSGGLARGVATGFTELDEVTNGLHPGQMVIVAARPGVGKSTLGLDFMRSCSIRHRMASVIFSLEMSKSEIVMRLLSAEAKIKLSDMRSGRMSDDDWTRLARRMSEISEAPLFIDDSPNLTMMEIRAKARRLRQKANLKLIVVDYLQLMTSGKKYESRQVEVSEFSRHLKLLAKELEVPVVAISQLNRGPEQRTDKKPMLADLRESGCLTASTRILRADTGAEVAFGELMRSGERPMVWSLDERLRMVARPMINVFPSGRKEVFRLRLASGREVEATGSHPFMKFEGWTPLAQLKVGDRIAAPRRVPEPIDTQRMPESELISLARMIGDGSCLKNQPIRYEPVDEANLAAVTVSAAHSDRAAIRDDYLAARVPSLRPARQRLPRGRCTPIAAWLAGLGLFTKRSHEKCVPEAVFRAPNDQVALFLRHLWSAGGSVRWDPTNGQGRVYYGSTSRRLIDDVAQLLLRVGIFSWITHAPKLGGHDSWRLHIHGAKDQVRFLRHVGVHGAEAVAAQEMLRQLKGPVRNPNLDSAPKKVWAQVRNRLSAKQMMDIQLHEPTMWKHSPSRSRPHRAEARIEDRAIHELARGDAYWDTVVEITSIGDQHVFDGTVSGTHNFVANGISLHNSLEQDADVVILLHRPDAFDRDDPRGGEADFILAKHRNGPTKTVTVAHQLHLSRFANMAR
# [15] = target: Serine/threonine-protein kinase pim-1 (Homo sapiens, UniProt P11309); type: functional
# [16] = target: T5, DNA dC->dU-editing enzyme APOBEC-3A (Homo sapiens, UniProt P31941); assay: SAR analysis of small molecule inhibitors of APOBEC3A DNA Deaminase via a fluorescence-based single-stranded DNA deaminase assay.; type: functional; conditions: read-out: IC50_Mean
# [17] = target: T6, DNA dC->dU-editing enzyme APOBEC-3G (Homo sapiens, UniProt Q9HC16); assay: APOBEC3G deaminase inhibitors, SAR follow-up, biochemical, fluorescence, single-stranded DNA substrate (AID 602136); type: functional; conditions: read-out: IC50_Mean
# [18] = target: T6, DNA dC->dU-editing enzyme APOBEC-3G; assay: SAR analysis of small molecule inhibitors of APOBEC3G DNA Deaminase via a fluorescence-based single-stranded DNA deaminase assay - Set 2.; type: functional; conditions: read-out: IC50_Mean
# [19] = target: T5, DNA dC->dU-editing enzyme APOBEC-3A; assay: SAR analysis of small molecule inhibitors of APOBEC3A DNA Deaminase via a fluorescence-based single-stranded DNA deaminase assay - Set 2.; type: functional; conditions: read-out: IC50_Mean
# [20] = target: Multidrug resistance protein CDR1 (Candida albicans, UniProt P43071); assay: CaCDR1 efflux pump inhibitors in yeast, dose response, S. cerevisiae AD1-8u, singleplex, Cherry Pick1 hits (AID 588606); type: functional
# [21] = target: T7, Heat shock factor protein 1 (Mus musculus, UniProt P38532); assay: inhibition of MG132-induced HSE-luciferase signal, confirmation, cell-based, NIH3T3, luminescence, dose retest (AID 2382); type: functional;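 further: NIH3T3 fibroblasts with HSF1-driven luciferase reporter stressed by proteasome inhibitor MG132; luminescence from HSF1-driven luciferase expression after 8 hours of MG132 stress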
# T7 sequence (P38532 whole entry): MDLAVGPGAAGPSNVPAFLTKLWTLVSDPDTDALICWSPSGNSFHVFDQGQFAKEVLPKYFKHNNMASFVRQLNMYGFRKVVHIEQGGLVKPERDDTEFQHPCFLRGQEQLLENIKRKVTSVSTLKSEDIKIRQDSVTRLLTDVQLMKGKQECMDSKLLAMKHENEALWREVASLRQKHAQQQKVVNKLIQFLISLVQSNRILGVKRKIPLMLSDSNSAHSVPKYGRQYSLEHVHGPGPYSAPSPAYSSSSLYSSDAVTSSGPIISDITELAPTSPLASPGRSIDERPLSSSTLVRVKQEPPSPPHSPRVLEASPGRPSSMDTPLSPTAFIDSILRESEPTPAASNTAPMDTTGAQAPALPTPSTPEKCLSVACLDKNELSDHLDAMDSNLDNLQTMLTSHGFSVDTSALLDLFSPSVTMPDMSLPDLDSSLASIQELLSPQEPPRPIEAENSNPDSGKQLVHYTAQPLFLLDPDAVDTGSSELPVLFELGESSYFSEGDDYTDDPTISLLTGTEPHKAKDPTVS
# [22] = target: T1, Apoptotic protease-activating factor 1; assay: SAR analysis of small molecule Activators of Apaf-1 in a Fluorescent assay.; type: functional; conditions: read-out: EC50_Mean
# T5 sequence (P31941 whole entry): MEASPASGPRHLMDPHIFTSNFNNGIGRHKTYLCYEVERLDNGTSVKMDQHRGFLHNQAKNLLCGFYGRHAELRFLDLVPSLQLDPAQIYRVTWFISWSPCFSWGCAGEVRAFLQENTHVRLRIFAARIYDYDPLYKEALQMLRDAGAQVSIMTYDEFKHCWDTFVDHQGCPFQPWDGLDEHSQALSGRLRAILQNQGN
# T6 sequence (Q9HC16 whole entry): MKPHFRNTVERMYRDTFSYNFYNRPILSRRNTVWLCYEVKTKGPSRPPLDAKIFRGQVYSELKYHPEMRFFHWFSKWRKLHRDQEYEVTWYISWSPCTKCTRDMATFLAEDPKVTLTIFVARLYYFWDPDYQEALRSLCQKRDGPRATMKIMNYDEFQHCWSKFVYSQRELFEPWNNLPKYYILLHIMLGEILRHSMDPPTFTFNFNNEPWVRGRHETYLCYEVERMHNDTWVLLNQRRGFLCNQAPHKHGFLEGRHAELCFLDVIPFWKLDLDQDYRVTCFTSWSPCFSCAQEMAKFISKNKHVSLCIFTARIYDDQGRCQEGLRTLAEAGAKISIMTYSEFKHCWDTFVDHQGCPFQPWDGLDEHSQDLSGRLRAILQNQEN
# Chain of Multidrug resistance protein CDR1 (P43071 whole entry, looked up): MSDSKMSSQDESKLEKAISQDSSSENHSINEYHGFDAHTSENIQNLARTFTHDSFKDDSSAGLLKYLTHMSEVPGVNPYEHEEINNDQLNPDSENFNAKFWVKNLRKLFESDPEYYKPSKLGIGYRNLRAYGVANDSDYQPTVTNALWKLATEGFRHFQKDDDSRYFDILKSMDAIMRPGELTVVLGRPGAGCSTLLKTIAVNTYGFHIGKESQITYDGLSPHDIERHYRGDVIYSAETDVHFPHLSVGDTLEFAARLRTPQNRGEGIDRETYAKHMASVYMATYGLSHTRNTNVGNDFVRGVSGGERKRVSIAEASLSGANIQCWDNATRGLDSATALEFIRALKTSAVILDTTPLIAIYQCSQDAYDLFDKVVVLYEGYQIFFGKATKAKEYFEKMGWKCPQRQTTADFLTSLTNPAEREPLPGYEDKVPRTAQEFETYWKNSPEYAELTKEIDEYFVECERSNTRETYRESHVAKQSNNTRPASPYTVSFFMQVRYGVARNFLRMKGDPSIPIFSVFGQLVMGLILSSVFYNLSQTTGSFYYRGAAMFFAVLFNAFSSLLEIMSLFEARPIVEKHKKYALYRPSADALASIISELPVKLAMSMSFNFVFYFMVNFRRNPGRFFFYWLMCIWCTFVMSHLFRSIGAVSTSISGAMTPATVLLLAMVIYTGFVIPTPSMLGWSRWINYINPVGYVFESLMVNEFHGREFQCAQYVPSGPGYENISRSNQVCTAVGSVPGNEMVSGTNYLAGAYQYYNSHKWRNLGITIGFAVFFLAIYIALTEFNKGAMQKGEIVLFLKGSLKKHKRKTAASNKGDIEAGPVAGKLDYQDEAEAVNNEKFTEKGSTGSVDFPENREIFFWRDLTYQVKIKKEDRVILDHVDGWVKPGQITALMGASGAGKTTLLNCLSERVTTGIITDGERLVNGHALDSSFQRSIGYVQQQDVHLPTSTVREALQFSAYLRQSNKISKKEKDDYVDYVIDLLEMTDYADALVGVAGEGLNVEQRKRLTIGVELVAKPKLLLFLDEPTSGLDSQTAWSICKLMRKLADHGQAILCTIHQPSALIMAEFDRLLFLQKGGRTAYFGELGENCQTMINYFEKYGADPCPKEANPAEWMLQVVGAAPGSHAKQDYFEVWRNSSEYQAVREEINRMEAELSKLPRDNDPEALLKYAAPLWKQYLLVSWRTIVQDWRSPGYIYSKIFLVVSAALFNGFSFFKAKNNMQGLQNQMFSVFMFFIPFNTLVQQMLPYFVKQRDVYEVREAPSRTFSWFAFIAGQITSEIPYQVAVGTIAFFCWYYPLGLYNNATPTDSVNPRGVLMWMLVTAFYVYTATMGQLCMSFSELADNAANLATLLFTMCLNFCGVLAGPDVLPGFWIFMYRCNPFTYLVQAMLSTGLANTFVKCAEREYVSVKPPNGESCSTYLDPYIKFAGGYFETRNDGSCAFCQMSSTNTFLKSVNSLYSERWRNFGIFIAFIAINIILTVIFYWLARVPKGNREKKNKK
# Chain of Serine/threonine-protein kinase pim-1 (P11309 whole entry): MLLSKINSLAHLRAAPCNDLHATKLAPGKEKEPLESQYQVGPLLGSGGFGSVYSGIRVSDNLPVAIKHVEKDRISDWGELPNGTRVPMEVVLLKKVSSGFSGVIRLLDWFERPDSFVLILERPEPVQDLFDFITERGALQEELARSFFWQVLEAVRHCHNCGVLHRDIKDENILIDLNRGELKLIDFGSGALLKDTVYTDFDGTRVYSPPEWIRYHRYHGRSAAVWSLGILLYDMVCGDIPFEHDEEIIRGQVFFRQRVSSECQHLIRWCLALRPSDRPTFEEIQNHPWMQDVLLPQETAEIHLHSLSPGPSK
structure (smiles),measurement,setting,value
O=C(O)C1CC(c2cccc(Br)c2)=NO1 (stereo not given),EC50,[1],> 100 µM (inactive)
same,EC50,[2],> 100 µM (inactive)
CC1CCc2c(sc3nc(C(C)(C)C)nc(N4CCN(C(=O)CCl)CC4)c23)C1 (stereo not given),EC50,[3],2.02 µM (active)
same,EC50,[4],0.588 µM (active)
same,EC50,[5],2.96 µM (active)
same,EC50,[6],4.69 µM (inconclusive)
same,EC50,[7],1.79 µM (active)
same,EC50,[8],0.481 µM (active)
same,EC50,[9],14.1 µM (active)
same,IC50,[10],> 80 µM (inactive)
same,AC50,[11],5.84 µM (active)
same,EC50,[12],5.42 µM (inconclusive)
same,EC50,[13],5.41 µM (inconclusive)
same,AC50,[14],2.45 µM (active)
Cc1ccc2c(Nc3cc(OCc4ccccc4Br)ccc3Sc3ccc(O)cc3)ncnc2n1,Ki,[15],5.01 µM (active)
CC(CN1CCCCC1)C(=O)O (stereo not given),EC50,[1],> 100 µM (inactive)
same,EC50,[2],> 100 µM (inactive)
Cc1cc(Cl)cc2c1N[C@H](c1ccncc1)C1CC=CC21 (stereo not given in full),IC50,[16],> 99 µM (inactive)
same,IC50,[17],> 99 µM (inactive)
Cc1ccc(-c2csc3nnc(SCC(N)=O)n23)cc1,IC50,[18],> 99 µM (inactive)
same,IC50,[19],> 99 µM (inactive)
O=C1C(Cc2ccccc2)Nc2ncnc(N3CCN(c4ccccc4)CC3)c2N1Cc1ccccc1 (stereo not given),EC50,[20],14.7 µM (active)
same,EC50,[21],> 195 µM (not active)
O=C(NC(=S)Nc1ccc2[nH]c(=O)[nH]c2c1)c1cncc(Br)c1,EC50,[20],2.09 µM (active)
COc1ccc(C)cc1NC(=O)CCS(=O)(=O)c1ccc2c(c1)CC(C)N2C(=O)C1CC1 (stereo not given),EC50,[22],> 100 µM (inactive)
